Test results taken from patent US5021419A, “Novel pyrazinoxide compound of NF-1616-904 and a pharmaceutical composition containing the same” (Otsuka Pharmaceutical Co., Ltd., priority 1987, dated 1991).

Assays:
[1] = test system: superoxide radicals (O2^-) release from the peritoneal macrophage cells of guinea pig; test: Inhibitory effect against superoxide radicals (O2^-) release from peritoneal macrophage cells by FMLP stimulation, cytochrome C reduction (Pharmacological Test-2); assay type: cell-based; details: Cavia porcellus, Peritoneal macrophage cell; FMLP 10^-7 M; 2×10^6 cells/ml; OD550; read-out: 50% inhibitory concentration (IC50)
Method: Inhibitory effect of the pyrazinoxide compound of NF-1616-904 against superoxide radicals (O2^-) release from the peritoneal macrophage cells of guinea pig by stimulation:
Mineral oil was intraperitoneally administered to a guinea pig, then 96 hours after the administration, the peritoneal microphage cells were obtained.
Superoxide radicals (O2^-) were determined by means of reduction of cytochrome C according to the procedures described in an article by T. Matsumoto, et al. in Biochemical and Biophysical Research Communications, Vol. 88, No. 3 (1979), pages 974-979.
Thus, the peritoneal macrophage cells were added to make the final concentration of 2×10^6 cells/ml into 1 ml of 80 μM-cytochrome C solution, further the pyrazinoxide compound of NF-1616-904 was added thereto to make the test group sample. On the other hand, water added in place of the pyrazinoxide compound of NF-1616-904 to make the control group sample. Both test group and control group samples were subjected to a pure incubation at 37° C. for 1 minute.
As to the stimulating agent for releasing superoxide radicals (O2^-), formylmethionylleucylphenylalanine (FMLP) was added to make the final concentration of 10^-7 M into the above-mentioned test group sample and control group sample. Then, both samples were subjected to additional reaction for 1 minute. […]

Masugi nephritis = test: Anti-albuminuria activity in Masugi nephritis (Pharmacological Test-3); assay type: in vivo, rat; details: oral; for Ratio of inhibition of albuminuria: 24 hours after NT, versus control; for Albuminuria: urine 24 hours after NT, mean±S.E., six rats, control 120 ± 30
Method: Anti-albuminuria activity of the pyrazinoxide compound of NF-1616-904 in Masugi nephritis
Rat nephrotoxin (hereinafter referred to as "NT") was prepared as follows. Thus, the kidney cortex of a rat was homogenized with an equal amount of physiological saline, then the thus obtained homogenate was admixed with Freund's complete adjuvant (manufacture by Difco Laboratories, Inc., Detroit, Mich., U.S.A.) in the ratio of 1:1. Then, 2 ml of this mixture was administered subcutaneously to a rabbit (body weight: 3.1 kg) to have said rabbit immunized. 1.5 Months after the immunization, the blood was sampled from the heart of said rabbit, and the serum was obtained thereform. The serum thus obtained was inactivated at 56° C. for 30 minutes, and subjected to fractionation by salting out with a aqueous solution saturated with 40% of ammonium sulfate. By sampling of immunoglobulin-γ-globulin (IgG) fraction, the desired NT was obtained.
This test was conducted by using Wisterstrain male rats having 150-160 g body weight. Pyrazinoxide compound of NF-1616-904 of the present invention […] were orally administered forcedly. Additionally, 1 ml of NT was administered intravenously to the tail vein of said rat. On the other hand, in place of pyrazinoxide compound of NF-1616-904, physiological saline was administered to other rats to make the control group.
The total amount of urinary protein being excreted in the urine during 24 hours after the administration of NT was determined by turbidity method using sulfosalicylic acid and bovine serum albumin (BSA) as the reference substance, according to procedures described in an article by F. Kingsbury, et al. in J. Lab. Clin. Med., Vol. 11, (1926), pages 981-989.
The ratio of inhibition of albuminuria (%) in the test group was calculated by referring to the measured value in the control group. The test results are shown in the following Table 2, in which each of the test data are shown at the mean value±S. E. of the six rats used in each of test and control groups.

P388/VCR cells = test: Effect for decreasing the tolerance against Vincristine in P388/VCR cells (Pharmacological Test-1); assay type: cell-based; details: Control group, NF-1616-902 0; 48 hours
Excerpt: Effect for decreasing the tolerance against Vincristine in P388/VCR cells

| Compound | IC50 [1] | Ratio of inhibition of albuminuria (Masugi nephritis; 30 mg/kg) | Albuminuria (Masugi nephritis; 30 mg/kg) | Ratio of inhibition of albuminuria (Masugi nephritis; 60 mg/kg) | Albuminuria (Masugi nephritis; 60 mg/kg) | Cytotoxic concentration of Vincristine (P388/VCR cells) |
| --- | --- | --- | --- | --- | --- | --- |
| COc1c(Cc2c[nH]c3ccccc23)[nH]c(=O)c(CC(C)C)[n+]1[O-] [NF-1616-904] | 12 µM | 62.5% | 45 ± 16 mg/day | 26.7% | 88 ± 18 mg/day | – |
| CC[C@]1(O)C[C@H]2CN(CCc3c([nH]c4ccccc34)[C@@](C(=O)OC)(c3cc4c(cc3OC)N(C=O)[C@H]3[C@@](O)(C(=O)OC)[C@H](OC(C)=O)[C@]5(CC)C=CCN6CC[C@]43[C@@H]65)C2)C1 [Vincristine] | – | – | – | – | – | 100 ng/mL |
